{"source": "patent US7598260B2", "about": "“CDK-inhibitory pyrimidines, their production and use as pharmaceutical agents” (Bayer Schering Pharma Aktiengesellschaft, priority 2001, dated 2009)", "key": {"[1]": {"test": "Solubility (Löslichkeit, g/l)", "type": "physicochemical"}, "[2]": {"target": "T1, CDK2/CycE (Homo sapiens, UniProt P24941)", "T1 construct": "GST; purchased Dr. Dieter Marmé, Klinik für Tumorbiologie, Freiburg; host or cells: baculovirus-infected Sf9 insect cells", "test": "CDK2/CycE kinase assay (enzyme test)", "type": "biochemical", "details": "read-out: Inhibition IC50 [nM] CDK2/CycE", "protocol": "Recombinant CDK2- and CycE-GST-fusion proteins, purified from baculovirus-infected insect cells (Sf9), are obtained by Dr. Dieter Marmé, Klinik für Tumorbiologie [Clinic for Tumor Biology], Freiburg. Histone IIIS, which is used as a kinase substrate, is purchased by the Sigma Company.\nThe reaction was is stopped by adding EDTA solution (250 mmol, pH 8.0, 14 μl/measuring point).\nFrom each reaction batch, 10 μl applied to P30 filter strips (Wallac Company), and non-incorporated ^33P-ATP is removed by subjecting the filter strips to three washing cycles for 10 minutes each in 0.5% phosphoric acid. After the filter strips are dried for one hour at 70° C., the filter were are covered with scintillator strips (MeltiLex™ A, Wallac Company) and baked for one hour at 90° C. The amount of incorporated ^33P (substrate phosphorylation) is determined by scintillation measurement in a gamma-radiation measuring device (Wallac)."}, "[3]": {"test_system": "MCF-7 cells", "test": "Proliferation assay, crystal violet staining (cell test), MCF-7", "type": "cell-based", "details": "Homo sapiens", "protocol": "(§1) Cultivated human tumor cells (as indicated) are flattened out at a density of 5000 cells/measuring point in a 96-hole multititer plate in 200 μl of the corresponding growth medium. After 24 hours, the cells of one plate (zero-point plate) are colored with crystal violet (see below), while the medium of the other plates is replaced by fresh culture medium (200 μl), to which the test substances are added at various concentrations (0 μm, as well as in the range of 0.01-30 μm; the final concentration of the solvent dimethyl sulfoxide is 0.5%). The cells are incubated for 4 days in the presence of test substances. The cell proliferation is determined by coloring the cells with crystal violet: the cells are fixed by adding 20 μl/measuring point of a 11% glutaric aldehyde solution for 15 minutes at room temperature. After three washing cycles of the fixed cells with water, the plates are dried at room temperature. The cells are colored by adding 100 μl/measuring point of a 0.1% crystal violet solution (pH is set at 3 by adding acetic acid). After three washing cycles of the colored cells with water, the plates are dried at room temperature. The dye is dissolved by adding 100 μl/measuring point of a 10% acetic acid solution. The extinction is determined by photometry at a wavelength of 595 nm. The change of cell growth, in percent, is calculated by standardization of the measured values to the extinction values of the zero-point plate (=0%) and the extinction of the untreated (0 μm) cells (=100%)."}, "[4]": {"test_system": "human tumor cells (as indicated)", "test": "Proliferation assay, crystal violet staining, other human tumor cells as indicated in the tables", "type": "cell-based", "details": "4 days incubation", "protocol": "as §1"}, "[5]": {"details": "96 h, MCF7 cells, 4 days incubation, read-out: Proliferation IC50 [μM] MCF7"}, "[6]": {"details": "DU-145, 96 h, DU145 cells, read-out: Proliferation IC50 [μM] DU145"}, "[7]": {"details": "HCT-116, 96 h, HCT116 cells, read-out: Proliferation IC50 [μM] HCT116"}, "[8]": {"details": "NCI-H460, 96 h, H460 cells, read-out: Proliferation IC50 [μM] H460"}}, "note": "Where two headings read alike, the source gives them in different places.", "data": [{"smiles": "C#CCOc1nc(Nc2ccc(C(C)=O)cc2)ncc1Br", "note": "[Example 22, 1-[4-[(5-Bromo-4-(2-propynyloxy)-2-pyrimidinyl)amino]phenyl]-ethanone]", "values": [{"measurement": "Sw", "setting": "[1]", "value": 0.003, "unit": "g/L"}, {"measurement": "IC50", "setting": "[2]", "value": 40, "unit": "nM"}, {"measurement": "IC50", "setting": "[3]; [5]", "value": 1.2, "unit": "µM"}, {"measurement": "IC50", "setting": "[4]; [6]", "value": 1.5, "unit": "µM"}, {"measurement": "IC50", "setting": "[4]; [7]", "value": 1.5, "unit": "µM"}, {"measurement": "IC50", "setting": "[4]; [8]", "value": 1.5, "unit": "µM"}]}, {"smiles": "C#CCNc1nc(Nc2ccc([S+](C)[O-])cc2)ncc1Br", "note": "(centres unmarked) [Example 25]", "values": [{"measurement": "Sw", "setting": "[1]", "value": 0.017, "unit": "g/L"}, {"measurement": "IC50", "setting": "[2]", "value": 70, "unit": "nM"}, {"measurement": "IC50", "setting": "[3]; [5]", "value": 1.2, "unit": "µM"}, {"measurement": "IC50", "setting": "[4]; [6]", "value": 1.2, "unit": "µM"}, {"measurement": "IC50", "setting": "[4]; [7]", "value": 1.1, "unit": "µM"}, {"measurement": "IC50", "setting": "[4]; [8]", "value": 1.5, "unit": "µM"}]}, {"smiles": "C#CCNc1nc(Nc2cccc(S(N)(=O)=O)c2)ncc1Br", "note": "[Example 36]", "values": [{"measurement": "Sw", "setting": "[1]", "value": 0.018, "unit": "g/L"}, {"measurement": "IC50", "setting": "[2]", "value": 30, "unit": "nM"}, {"measurement": "IC50", "setting": "[3]; [5]", "value": 0.4, "unit": "µM"}, {"measurement": "IC50", "setting": "[4]; [6]", "value": 0.6, "unit": "µM"}, {"measurement": "IC50", "setting": "[4]; [7]", "value": 0.5, "unit": "µM"}, {"measurement": "IC50", "setting": "[4]; [8]", "value": 0.6, "unit": "µM"}]}, {"smiles": "C#CCOc1nc(Nc2ccc(OCC3CO3)cc2)ncc1Br", "note": "(centres unmarked) [Example 40]", "values": [{"measurement": "Sw", "setting": "[1]", "value": 0.002, "unit": "g/L"}, {"measurement": "IC50", "setting": "[2]", "value": 20, "unit": "nM"}, {"measurement": "IC50", "setting": "[3]; [5]", "value": 1, "unit": "µM"}, {"measurement": "IC50", "setting": "[4]; [6]", "value": 9, "unit": "µM"}, {"measurement": "IC50", "setting": "[4]; [7]", "value": 3, "unit": "µM"}, {"measurement": "IC50", "setting": "[4]; [8]", "value": 3, "unit": "µM"}]}, {"smiles": "C#CCNc1nc(Nc2ccc(S(N)(=O)=O)cc2)ncc1Cl", "note": "[Example 44]", "values": [{"measurement": "Sw", "setting": "[1]", "value": 0.005, "unit": "g/L"}, {"measurement": "IC50", "setting": "[2]", "value": 8, "unit": "nM"}, {"measurement": "IC50", "setting": "[3]; [5]", "value": 1.2, "unit": "µM"}, {"measurement": "IC50", "setting": "[4]; [6]", "value": 0.3, "unit": "µM"}, {"measurement": "IC50", "setting": "[4]; [7]", "value": 0.4, "unit": "µM"}, {"measurement": "IC50", "setting": "[4]; [8]", "value": 0.4, "unit": "µM"}]}, {"smiles": "CCC(Nc1nc(Nc2ccc(S(N)(=O)=O)cc2)ncc1Br)C(=O)OC", "note": "(centres unmarked) [Example 45]", "values": [{"measurement": "Sw", "setting": "[1]", "value": 0.0094, "unit": "g/L"}, {"measurement": "IC50", "setting": "[2]", "value": 10, "unit": "nM"}, {"measurement": "IC50", "setting": "[3]; [5]", "value": 2, "unit": "µM"}, {"measurement": "IC50", "setting": "[4]; [6]", "value": 0.5, "unit": "µM"}, {"measurement": "IC50", "setting": "[4]; [7]", "value": 1.2, "unit": "µM"}, {"measurement": "IC50", "setting": "[4]; [8]", "value": 1.7, "unit": "µM"}]}, {"smiles": "CC(C)[C@H](CO)Nc1nc(Nc2ccc(S(=O)(=O)NCCO)cc2)ncc1Br", "note": "[Example 48]", "values": [{"measurement": "Sw", "setting": "[1]", "value": 0.042, "unit": "g/L"}, {"measurement": "Löslichkeit", "setting": "[1]; comparison with known compounds", "value": 0.042, "unit": "g/L"}, {"measurement": "IC50", "setting": "[2]", "value": 4, "unit": "nM"}, {"measurement": "IC50", "setting": "[3]; [5]", "value": 0.2, "unit": "µM"}, {"measurement": "IC50", "setting": "[3]; MCF7, MCF-7 cells, comparison with known compounds, read-out: MCF-7 IC50", "value": 0.2, "unit": "µM"}, {"measurement": "IC50", "setting": "[4]; [6]", "value": 0.3, "unit": "µM"}, {"measurement": "IC50", "setting": "[4]; [7]", "value": 0.4, "unit": "µM"}, {"measurement": "IC50", "setting": "[4]; [8]", "value": 1, "unit": "µM"}]}, {"smiles": "CC(=O)c1ccc(Nc2ncc(Br)c(NCC3CC3)n2)cc1", "note": "[Example 52]", "values": [{"measurement": "Sw", "setting": "[1]", "value": 0.0005, "unit": "g/L"}, {"measurement": "IC50", "setting": "[2]", "value": 200, "unit": "nM"}, {"measurement": "IC50", "setting": "[3]; [5]", "value": 0.2, "unit": "µM"}, {"measurement": "IC50", "setting": "[4]; [6]", "value": 2, "unit": "µM"}, {"measurement": "IC50", "setting": "[4]; [7]", "value": 1.2, "unit": "µM"}, {"measurement": "IC50", "setting": "[4]; [8]", "value": 1.6, "unit": "µM"}]}]}
